# Experimental data published in ChEMBL document CHEMBL5230129, “Antibacterial activities with the structure-activity relationship of coumarin derivatives” (2020).
# Assays:
# Format in all cases: functional
# Staphylococcus aureus [1] = test: Antibacterial activity against Staphylococcus aureus MTCC 121 assessed as zone of inhibition incubated for 24 hrs by well-plate method
# Escherichia coli [2] = test: Antibacterial activity against Escherichia coli MTCC 40 assessed as zone of inhibition incubated for 24 hrs by well-plate method; note: test concentration or dose not given here
# Escherichia coli [3] = test: Antibacterial activity against Escherichia coli MTCC 40 assessed as inhibition of bacterial growth incubated for 24 hrs by well-plate method
# Staphylococcus aureus [4] = test: Antibacterial activity against Staphylococcus aureus MTCC 121 assessed as inhibition of bacterial growth incubated for 24 hrs by well-plate method
# Bacillus subtilis [5] = test: Antibacterial activity against Bacillus subtilis assessed as zone of inhibition incubated for 24 hrs by agar diffusion assay
# Proteus vulgaris = test: Antibacterial activity against Proteus vulgaris assessed as zone of inhibition incubated for 24 hrs by agar diffusion assay
# Staphylococcus aureus [6] = test: Antibacterial activity against Staphylococcus aureus assessed as zone of inhibition incubated for 24 hrs by agar diffusion assay
# [7] = system: Sphingomonas paucimobilis; test: Antibacterial activity against Flavobacterium devorans ATCC 10829 assessed as inhibition of bacterial growth incubated for 24 hrs by serial twofold dilution assay
# Pseudomonas fluorescens = test: Antibacterial activity against Pseudomonas fluorescens NCIM 2173 assessed as inhibition of bacterial growth incubated for 24 hrs by serial twofold dilution assay
# Escherichia coli [8] = test: Antibacterial activity against Escherichia coli NCIM 2256 assessed as inhibition of bacterial growth incubated for 24 hrs by serial twofold dilution assay
# Escherichia coli [9] = test: Antibacterial activity against Escherichia coli MTCC 739 assessed as inhibition of bacterial growth incubated for 24 hrs by spectrophotometric assay
# Escherichia coli [10] = test: Antibacterial activity against Escherichia coli assessed as inhibition of bacterial growth relative to control
# Bacillus subtilis [11] = test: Antibacterial activity against Bacillus subtilis assessed as inhibition of bacterial growth relative to control
# Klebsiella pneumoniae = test: Antibacterial activity against Klebsiella pneumoniae assessed as zone of inhibition incubated for 24 hrs by disk diffusion assay
# Pseudomonas aeruginosa [12] = test: Antibacterial activity against Pseudomonas aeruginosa assessed as zone of inhibition incubated for 24 to 48 hrs by agar well diffusion assay; conditions: time 24-48 hrs
# Staphylococcus aureus [13] = test: Antibacterial activity against Staphylococcus aureus assessed as zone of inhibition incubated for 24 to 48 hrs by agar well diffusion assay; conditions: time 24-48 hrs
# Staphylococcus aureus [14] = test: Antibacterial activity against Staphylococcus aureus ATCC-29213 assessed as inhibition of bacterial growth incubated for 16 hrs by agar-well diffusion assay
# Micrococcus luteus = test: Antibacterial activity against Micrococcus luteus assessed as zone of inhibition incubated for 24 hrs by well-diffusion method
# Escherichia coli [15] = test: Antibacterial activity against Escherichia coli assessed as zone of inhibition incubated for 24 hrs by well-diffusion method
# Staphylococcus aureus [16] = test: Antibacterial activity against Staphylococcus aureus assessed as zone of inhibition incubated for 24 hrs by well-diffusion method
# Pseudomonas aeruginosa [17] = test: Antibacterial activity against Pseudomonas aeruginosa assessed as zone of inhibition incubated for 24 hrs by well-diffusion method
# Escherichia coli [18] = test: Antibacterial activity against Escherichia coli ATCC 25922 assessed as zone of inhibition incubated for 24 hrs by paper disk method; note: test concentration or dose not given here
# Bacillus subtilis [19] = test: Antibacterial activity against Bacillus subtilis ATCC 10876 assessed as zone of inhibition incubated for 24 hrs by paper disk method
# Pseudomonas aeruginosa [20] = test: Antibacterial activity against Pseudomonas aeruginosa ATCC 27853 assessed as zone of inhibition incubated for 24 hrs by paper disk method; note: test concentration or dose not given here
# Staphylococcus aureus [21] = test: Antibacterial activity against Staphylococcus aureus ATCC 25923 assessed as zone of inhibition incubated for 24 hrs by paper disk method
# Pseudomonas aeruginosa [22] = test: Antibacterial activity against Pseudomonas aeruginosa assessed as inhibition of bacterial growth incubated for 24 hrs by broth microdilution assay
# Pseudomonas aeruginosa [23] = test: Antibacterial activity against Pseudomonas aeruginosa MTCC 1034 assessed as inhibition of bacterial growth by broth micro dilution assay
# Staphylococcus aureus [24] = test: Antibacterial activity against Staphylococcus aureus MTCC 3160 assessed as inhibition of bacterial growth by broth micro dilution assay
# Escherichia coli [25] = test: Antibacterial activity against Escherichia coli MTCC 1586 assessed as zone of inhibition incubated overnight by Kirby-Bauer disc diffusion method
# Staphylococcus aureus [26] = test: Antibacterial activity against Staphylococcus aureus MTCC 740 assessed as zone of inhibition incubated overnight by Kirby-Bauer disc diffusion method
compound,measurement,setting,value
O=c1oc2cc(Br)ccc2cc1-c1csc(N/N=C/c2cn(-c3ccccc3)nc2-c2cc3ccccc3oc2=O)n1,inhibition zone (IZ),Staphylococcus aureus [1],22 mm
same,inhibition zone (IZ),Escherichia coli [2],22 mm
same,MIC,Escherichia coli [3],12.5 µg/mL
same,MIC,Staphylococcus aureus [4],50 µg/mL
O=C(/C=C/c1cc(/N=N\c2ccc(Cl)cc2)ccc1O)c1cc2ccccc2oc1=O,inhibition zone (IZ),Bacillus subtilis [5],>17 mm
same,inhibition zone (IZ),Proteus vulgaris,>17 mm
same,inhibition zone (IZ),Staphylococcus aureus [6],>17 mm
O=c1oc2ccccc2cc1-c1nn(-c2ccccc2)cc1/C=N/Nc1nc(-c2ccccc2)cs1,inhibition zone (IZ),Escherichia coli [2],19 mm
CC1(C)S[C@@H]2[C@H](NC(=O)[C@H](N)c3ccccc3)C(=O)N2[C@H]1C(=O)O [AMPICILLIN],MIC,[7],4 µg/mL
same,MIC,Pseudomonas fluorescens,4 µg/mL
same,MIC,Escherichia coli [8],4 µg/mL
same,MIC,Escherichia coli [9],6.25 µg/mL
COC(=O)c1nnn(CC(=O)c2cc3cc(C)ccc3oc2=O)c1C(=O)OC,inhibition (INH),Escherichia coli [10],83.3%
same,inhibition (INH),Bacillus subtilis [11],83.3%
GENTAMICIN,inhibition zone (IZ),Klebsiella pneumoniae,16 mm
COc1cc(COc2cn(CCOc3cc(=O)oc4ccccc34)nn2)ccc1/C=C/C(=O)/C=C/c1ccc(OC)c(OC)c1,inhibition zone (IZ),Pseudomonas aeruginosa [12],7 mm
same,inhibition zone (IZ),Staphylococcus aureus [13],8 mm
O=c1cc(OCc2cn(CN3CCN(c4ccc(F)cc4)CC3)c(=S)s2)c2ccccc2o1,MIC,Escherichia coli [9],12.5 µg/mL
COc1cc(COc2cn(CCOc3cc(=O)oc4ccccc34)nn2)ccc1/C=C/C(=O)/C=C/c1cc(OC)c(OC)c(OC)c1,inhibition zone (IZ),Staphylococcus aureus [13],7 mm
CC(C)(C)NC(=O)c1c(-c2ccccc2)nc(SCc2cc(=O)oc3ccc4ccccc4c23)[nH]c1=O,MIC,Staphylococcus aureus [14],2.5 µg/mL
COC(=O)c1nnn(CC(=O)c2cc3c(ccc4ccccc43)oc2=O)c1C(=O)OC,inhibition (INH),Escherichia coli [10],83.3%
same,inhibition (INH),Bacillus subtilis [11],83.3%
CO/N=C(\C(=O)N[C@@H]1C(=O)N2C(C(=O)O)=C(COC(C)=O)CS[C@H]12)c1csc(N)n1 [CEFOTAXIME],inhibition zone (IZ),Micrococcus luteus,11 mm
same,inhibition zone (IZ),Escherichia coli [15],11 mm
same,inhibition zone (IZ),Staphylococcus aureus [16],11 mm
same,inhibition zone (IZ),Pseudomonas aeruginosa [17],11 mm
COc1cccc(/C=C/C(=O)/C=C/c2ccc(COc3cn(CCOc4cc(=O)oc5ccccc45)nn3)cc2OC)c1,inhibition zone (IZ),Pseudomonas aeruginosa [12],7 mm
same,inhibition zone (IZ),Staphylococcus aureus [13],8 mm
NCC[C@H](O)C(=O)N[C@@H]1C[C@H](N)[C@@H](O[C@H]2O[C@H](CN)[C@@H](O)[C@H](O)[C@H]2O)[C@H](O)[C@H]1O[C@H]1O[C@H](CO)[C@@H](O)[C@H](N)[C@H]1O [AMIKACIN],inhibition zone (IZ),Escherichia coli [18],17 mm
same,inhibition zone (IZ),Bacillus subtilis [19],18 mm
same,inhibition zone (IZ),Pseudomonas aeruginosa [20],17 mm
same,inhibition zone (IZ),Staphylococcus aureus [21],20 mm
O=c1cc(OCc2cn(CN3CCN(c4ccccc4F)CC3)c(=S)s2)c2ccccc2o1,MIC,Escherichia coli [9],12.5 µg/mL
CO/N=C(\C(=O)N[C@@H]1C(=O)N2C(C(=O)O)=C(COC(N)=O)CS[C@H]12)c1ccco1 [CEFUROXIME],MIC,Pseudomonas aeruginosa [22],98 µg/mL
Cc1cc(=O)oc2c1=CCC(O)C=2C1C(C#N)=C(N)Oc2c1c(=O)oc1ccccc21 (centres undefined),MIC,Pseudomonas aeruginosa [23],1.6 µg/mL
same,MIC,Staphylococcus aureus [24],0.4 µg/mL
CC[N+](CC)(CC)CCCCCCCCNCc1cn(Cc2cc(=O)oc3c(OC)c4c(cc23)CCC(C)(C)O4)nn1.[Br-],inhibition zone (IZ),Escherichia coli [25],2 mm
same,inhibition zone (IZ),Staphylococcus aureus [26],0 mm
Cc1cc(=O)oc2c1=CCC(Cl)C=2C1C(C#N)=C(N)Oc2c1c(=O)oc1ccccc21 (centres undefined),MIC,Staphylococcus aureus [24],0.8 µg/mL
